In the kinase profiling compilation of Christmann-Franck et al. (2016):

How the values were obtained:
Assay in all cases: radiometric filter-binding kinase assay, Kinase HotSpot
Settings in all cases: compound 0.5 µM; ATP 10 µM
PIM3 (human) = PIM3 (human) (UniProt Q86V86)
MAPK9 (human) = MAPK9 (human) (UniProt P45984)
MAP3K14 (human) = MAP3K14 (human) (UniProt Q99558)
MAP2K2 (human) = MAP2K2 (human) (UniProt P36507)
STK4 (human) = STK4 (human) (UniProt Q13043)
CLK3 (human) = CLK3 (human) (UniProt P49761)
MAPK8 (human) = MAPK8 (human) (UniProt P45983)
EPHB3 (human) = EPHB3 (human) (UniProt P54753)
STK33 (human) = STK33 (human) (UniProt Q9BYT3)
CDK5 CDK5R1 p35 (human) = CDK5 CDK5R1 p35 (human) (UniProt Q00535+Q15078)
GRK6 (human) = GRK6 (human) (UniProt P43250)
CAMK4 (human) = CAMK4 (human) (UniProt Q16566)
KDR (human) = KDR (human) (UniProt P35968)
MAP4K5 (human) = MAP4K5 (human) (UniProt Q9Y4K4)
CAMK2B (human) = CAMK2B (human) (UniProt Q13554)
PDGFRA (human) = PDGFRA (human) (UniProt P16234)
MAP3K7 TAB1 (human) = MAP3K7 TAB1 (human) (UniProt O43318+Q15750)
CAMK2A (human) = CAMK2A (human) (UniProt Q9UQM7)
TTK (human) = TTK (human) (UniProt P33981)
MAP3K8 (human) = MAP3K8 (human) (UniProt P41279)
CDK6 CCND3 (human) = CDK6 CCND3 (human) (UniProt P30281+Q00534)
FLT1 (human) = FLT1 (human) (UniProt P17948)
MLTK (human) = MLTK (human) (UniProt Q9NYL2)
IRAK4 (human) = IRAK4 (human) (UniProt Q9NWZ3)
DDR2 (human) = DDR2 (human) (UniProt Q16832)
NEK9 (human) = NEK9 (human) (UniProt Q8TD19)
LIMK1 (human) = LIMK1 (human) (UniProt P53667)
STK24 (human) = STK24 (human) (UniProt Q9Y6E0)
CAMK2D (human) = CAMK2D (human) (UniProt Q13557)
PRKCA (human) = PRKCA (human) (UniProt P17252)
CAMK1 (human) = CAMK1 (human) (UniProt Q14012)
PTK2B (human) = PTK2B (human) (UniProt Q14289)
TAOK1 (human) = TAOK1 (human) (UniProt Q7L7X3)
CAMKK1 (human) = CAMKK1 (human) (UniProt Q8N5S9)
CDK5 CDK5R1 p25 (human) = CDK5 CDK5R1 p25 (human) (UniProt Q00535+Q15078)
CDK9 CCNK (human) = CDK9 CCNK (human) (UniProt O75909+P50750)
RPS6KA3 KD1 KD2 (human) = RPS6KA3 KD1 KD2 (human) (UniProt P51812)
NTRK1 (human) = NTRK1 (human) (UniProt P04629)
STK39 (human) = STK39 (human) (UniProt Q9UEW8)
BTK (human) = BTK (human) (UniProt Q06187)
SYK (human) = SYK (human) (UniProt P43405)

CAMK2D (human), sequence (Q13557 whole entry, looked up): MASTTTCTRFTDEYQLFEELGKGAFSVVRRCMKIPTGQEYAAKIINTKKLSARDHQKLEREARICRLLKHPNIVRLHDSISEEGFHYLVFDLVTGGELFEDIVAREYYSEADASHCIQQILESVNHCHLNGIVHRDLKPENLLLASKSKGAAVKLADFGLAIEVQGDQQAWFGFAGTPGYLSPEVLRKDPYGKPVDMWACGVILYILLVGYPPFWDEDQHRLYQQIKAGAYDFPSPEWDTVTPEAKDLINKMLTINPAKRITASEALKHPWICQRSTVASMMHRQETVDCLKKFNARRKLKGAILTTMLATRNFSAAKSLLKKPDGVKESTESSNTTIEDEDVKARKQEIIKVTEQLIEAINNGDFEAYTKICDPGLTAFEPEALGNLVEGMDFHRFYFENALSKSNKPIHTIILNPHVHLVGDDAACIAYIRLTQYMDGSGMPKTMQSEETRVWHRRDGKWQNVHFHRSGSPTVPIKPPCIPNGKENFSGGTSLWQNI
MAPK8 (human), sequence (P45983 whole entry, looked up): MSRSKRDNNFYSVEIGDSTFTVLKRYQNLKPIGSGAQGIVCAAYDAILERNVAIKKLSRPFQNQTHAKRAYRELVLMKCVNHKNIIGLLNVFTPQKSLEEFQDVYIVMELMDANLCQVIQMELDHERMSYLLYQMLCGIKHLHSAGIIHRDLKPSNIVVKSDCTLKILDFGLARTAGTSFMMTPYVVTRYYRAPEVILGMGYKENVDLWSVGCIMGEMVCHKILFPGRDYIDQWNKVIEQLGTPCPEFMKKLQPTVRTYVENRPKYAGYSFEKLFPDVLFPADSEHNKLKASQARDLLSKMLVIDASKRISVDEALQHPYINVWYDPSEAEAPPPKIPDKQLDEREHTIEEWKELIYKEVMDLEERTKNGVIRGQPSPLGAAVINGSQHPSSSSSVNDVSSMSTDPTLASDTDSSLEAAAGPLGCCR
MLTK (human), sequence (Q9NYL2 whole entry, looked up): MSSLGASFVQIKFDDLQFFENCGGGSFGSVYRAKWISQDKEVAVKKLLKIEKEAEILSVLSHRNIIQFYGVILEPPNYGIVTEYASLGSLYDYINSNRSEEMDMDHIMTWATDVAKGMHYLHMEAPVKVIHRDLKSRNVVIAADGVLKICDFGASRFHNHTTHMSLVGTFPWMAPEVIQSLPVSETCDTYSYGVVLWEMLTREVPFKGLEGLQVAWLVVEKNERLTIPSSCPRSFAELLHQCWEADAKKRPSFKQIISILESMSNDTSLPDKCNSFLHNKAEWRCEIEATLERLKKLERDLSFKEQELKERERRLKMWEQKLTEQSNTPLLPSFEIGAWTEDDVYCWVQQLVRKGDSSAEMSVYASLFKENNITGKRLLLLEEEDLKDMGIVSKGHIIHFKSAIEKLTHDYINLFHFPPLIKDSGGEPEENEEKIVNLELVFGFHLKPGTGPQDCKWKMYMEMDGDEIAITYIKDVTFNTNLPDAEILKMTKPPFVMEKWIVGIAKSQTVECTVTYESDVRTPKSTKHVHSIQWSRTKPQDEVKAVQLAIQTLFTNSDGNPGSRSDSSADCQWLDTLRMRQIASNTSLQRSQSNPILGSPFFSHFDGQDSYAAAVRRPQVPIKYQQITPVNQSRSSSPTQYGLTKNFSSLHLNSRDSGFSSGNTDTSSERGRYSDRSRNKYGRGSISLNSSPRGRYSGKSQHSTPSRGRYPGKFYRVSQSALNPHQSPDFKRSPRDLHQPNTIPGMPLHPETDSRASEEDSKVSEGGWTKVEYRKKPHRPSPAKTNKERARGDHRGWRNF
STK24 (human), sequence (Q9Y6E0 whole entry, looked up): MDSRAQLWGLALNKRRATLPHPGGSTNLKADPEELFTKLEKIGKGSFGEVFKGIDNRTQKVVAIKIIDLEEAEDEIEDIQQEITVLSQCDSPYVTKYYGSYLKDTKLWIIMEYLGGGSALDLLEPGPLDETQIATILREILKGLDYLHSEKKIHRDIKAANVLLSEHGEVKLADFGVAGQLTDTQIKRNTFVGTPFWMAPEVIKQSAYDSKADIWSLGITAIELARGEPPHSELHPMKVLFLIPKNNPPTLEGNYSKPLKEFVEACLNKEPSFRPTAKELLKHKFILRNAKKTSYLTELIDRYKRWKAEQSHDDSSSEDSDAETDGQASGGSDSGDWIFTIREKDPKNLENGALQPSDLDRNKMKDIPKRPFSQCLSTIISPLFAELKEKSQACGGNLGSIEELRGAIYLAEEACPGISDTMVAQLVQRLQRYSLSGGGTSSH
NEK9 (human), sequence (Q8TD19 whole entry, looked up): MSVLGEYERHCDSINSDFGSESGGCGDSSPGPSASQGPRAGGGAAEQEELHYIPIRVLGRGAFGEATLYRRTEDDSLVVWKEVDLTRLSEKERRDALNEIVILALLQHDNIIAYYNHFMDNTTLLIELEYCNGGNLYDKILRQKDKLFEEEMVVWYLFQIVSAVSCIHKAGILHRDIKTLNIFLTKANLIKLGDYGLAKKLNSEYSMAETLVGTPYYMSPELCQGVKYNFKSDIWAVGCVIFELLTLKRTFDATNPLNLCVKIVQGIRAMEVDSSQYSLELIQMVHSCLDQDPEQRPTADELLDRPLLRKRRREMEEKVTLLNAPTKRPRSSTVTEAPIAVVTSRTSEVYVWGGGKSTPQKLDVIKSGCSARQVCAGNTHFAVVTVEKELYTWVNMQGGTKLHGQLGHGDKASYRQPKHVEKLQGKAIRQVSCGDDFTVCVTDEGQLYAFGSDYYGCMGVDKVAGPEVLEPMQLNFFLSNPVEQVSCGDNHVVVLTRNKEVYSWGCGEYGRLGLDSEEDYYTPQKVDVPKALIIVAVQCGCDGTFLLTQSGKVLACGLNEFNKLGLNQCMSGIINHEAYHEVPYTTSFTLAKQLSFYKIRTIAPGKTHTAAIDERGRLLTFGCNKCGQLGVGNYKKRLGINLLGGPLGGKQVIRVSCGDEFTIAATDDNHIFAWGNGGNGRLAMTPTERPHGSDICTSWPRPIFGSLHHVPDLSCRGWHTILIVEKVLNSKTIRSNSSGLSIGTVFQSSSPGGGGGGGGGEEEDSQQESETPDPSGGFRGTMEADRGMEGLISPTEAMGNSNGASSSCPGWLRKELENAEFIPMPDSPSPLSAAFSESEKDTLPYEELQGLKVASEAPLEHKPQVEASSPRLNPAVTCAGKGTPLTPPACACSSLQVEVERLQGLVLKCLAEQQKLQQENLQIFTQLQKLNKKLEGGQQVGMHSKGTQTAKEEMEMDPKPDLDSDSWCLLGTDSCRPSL
TAOK1 (human), sequence (Q7L7X3 whole entry, looked up): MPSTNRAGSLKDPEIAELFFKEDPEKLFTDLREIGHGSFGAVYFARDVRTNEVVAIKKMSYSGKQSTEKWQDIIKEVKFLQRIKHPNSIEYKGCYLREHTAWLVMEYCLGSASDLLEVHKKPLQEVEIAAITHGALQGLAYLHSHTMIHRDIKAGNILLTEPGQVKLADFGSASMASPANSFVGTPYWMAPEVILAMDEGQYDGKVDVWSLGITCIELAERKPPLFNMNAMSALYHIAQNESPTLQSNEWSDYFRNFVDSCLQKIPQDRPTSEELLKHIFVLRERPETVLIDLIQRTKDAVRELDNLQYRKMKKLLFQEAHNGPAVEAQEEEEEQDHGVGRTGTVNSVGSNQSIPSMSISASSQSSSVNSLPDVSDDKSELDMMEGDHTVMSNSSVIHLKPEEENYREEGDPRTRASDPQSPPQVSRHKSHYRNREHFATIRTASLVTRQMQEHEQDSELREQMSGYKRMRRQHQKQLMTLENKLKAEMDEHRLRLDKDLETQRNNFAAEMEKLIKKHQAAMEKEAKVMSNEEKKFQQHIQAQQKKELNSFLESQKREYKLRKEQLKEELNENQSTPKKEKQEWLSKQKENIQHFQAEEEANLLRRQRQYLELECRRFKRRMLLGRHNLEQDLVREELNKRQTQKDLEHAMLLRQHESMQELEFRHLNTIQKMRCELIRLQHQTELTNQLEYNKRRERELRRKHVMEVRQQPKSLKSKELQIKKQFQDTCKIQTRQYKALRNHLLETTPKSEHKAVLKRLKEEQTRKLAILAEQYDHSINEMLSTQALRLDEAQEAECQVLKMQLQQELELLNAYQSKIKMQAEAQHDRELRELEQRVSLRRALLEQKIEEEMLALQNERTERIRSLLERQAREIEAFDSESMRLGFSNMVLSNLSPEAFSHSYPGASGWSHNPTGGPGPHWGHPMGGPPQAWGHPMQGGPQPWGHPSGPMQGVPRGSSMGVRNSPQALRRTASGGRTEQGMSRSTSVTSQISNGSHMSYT
MAP3K8 (human), sequence (P41279 whole entry, looked up): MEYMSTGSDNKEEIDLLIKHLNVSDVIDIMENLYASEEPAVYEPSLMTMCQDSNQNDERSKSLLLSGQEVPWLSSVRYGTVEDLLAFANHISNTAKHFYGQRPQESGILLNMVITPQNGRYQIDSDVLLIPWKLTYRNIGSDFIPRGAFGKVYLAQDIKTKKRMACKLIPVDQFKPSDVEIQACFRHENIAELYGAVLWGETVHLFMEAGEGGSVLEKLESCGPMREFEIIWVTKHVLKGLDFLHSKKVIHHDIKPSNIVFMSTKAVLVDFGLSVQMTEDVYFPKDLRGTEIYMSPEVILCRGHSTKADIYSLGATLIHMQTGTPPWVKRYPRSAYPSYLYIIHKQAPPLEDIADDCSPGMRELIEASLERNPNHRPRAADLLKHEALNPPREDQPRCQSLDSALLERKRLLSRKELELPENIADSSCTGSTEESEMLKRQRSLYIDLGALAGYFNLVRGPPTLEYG

Work on `Cc1nc2cc3nc(-c4cccs4)cnc3cc2n1C` yielded a residual activity (PIM3 (human)) of 91.2%, a residual activity (MAPK9 (human)) of 74.7% and a residual activity (MAP3K14 (human)) of 97.4%. The residual activity (MAP2K2 (human)) was 77.5%, the residual activity (STK4 (human)) was 97.4% and the residual activity (CLK3 (human)) was 114%. For the same compound, the residual activity (MAPK8 (human)) was 93.7%, the residual activity (EPHB3 (human)) was 101% and the residual activity (STK33 (human)) was 91.5%. For the same compound, the residual activity (CDK5 CDK5R1 p35 (human)) was 107%, the residual activity (GRK6 (human)) was 104% and the residual activity (CAMK4 (human)) was 94.7%. For the same compound, the residual activity (KDR (human)) was 77.4%, the residual activity (MAP4K5 (human)) was 94.8% and the residual activity (CAMK2B (human)) was 101%. The residual activity (PDGFRA (human)) was 23.8%, the residual activity (MAP3K7 TAB1 (human)) was 92.5% and the residual activity (CAMK2A (human)) was 105%. The residual activity (TTK (human)) was 92.6%, the residual activity (MAP3K8 (human)) was 99% and the residual activity (CDK6 CCND3 (human)) was 87.8%. For the same compound, the residual activity (FLT1 (human)) was 93.6%, the residual activity (MLTK (human)) was 89.1% and the residual activity (IRAK4 (human)) was 201%. It also gave a residual activity (DDR2 (human)) of 108%, a residual activity (NEK9 (human)) of 105% and a residual activity (LIMK1 (human)) of 112%. For the same compound, the residual activity (STK24 (human)) was 103%, the residual activity (CAMK2D (human)) was 100% and the residual activity (PRKCA (human)) was 74.7%. The residual activity (CAMK1 (human)) was 98.1%, the residual activity (PTK2B (human)) was 96.4% and the residual activity (TAOK1 (human)) was 110%. For the same compound, the residual activity (CAMKK1 (human)) was 127%, the residual activity (CDK5 CDK5R1 p25 (human)) was 99.3% and the residual activity (CDK9 CCNK (human)) was 110%. The residual activity (RPS6KA3 KD1 KD2 (human)) was 96.3%, the residual activity (NTRK1 (human)) was 113% and the residual activity (STK39 (human)) was 79.8%. It also gave a residual activity (BTK (human)) of 101% and a residual activity (SYK (human)) of 94.3%.

`CCN(CC)CCCCN1c2ccccc2Oc2ccc(Cl)cc21` showed a residual activity (PIM3 (human)) of 37.8%, a residual activity (MAPK9 (human)) of 105% and a residual activity (MAP3K14 (human)) of 95.6%. For the same compound, the residual activity (MAP2K2 (human)) was 88.4%, the residual activity (STK4 (human)) was 98.9% and the residual activity (CLK3 (human)) was 104%. It also gave a residual activity (MAPK8 (human)) of 89.7%, a residual activity (EPHB3 (human)) of 112% and a residual activity (STK33 (human)) of 89.9%. It also gave a residual activity (CDK5 CDK5R1 p35 (human)) of 90.3%, a residual activity (GRK6 (human)) of 88.4% and a residual activity (CAMK4 (human)) of 98.9%. It also gave a residual activity (KDR (human)) of 93.7%, a residual activity (MAP4K5 (human)) of 93.4% and a residual activity (CAMK2B (human)) of 107%. The residual activity (PDGFRA (human)) was 102%, the residual activity (MAP3K7 TAB1 (human)) was 102% and the residual activity (CAMK2A (human)) was 104%. For the same compound, the residual activity (TTK (human)) was 104%, the residual activity (MAP3K8 (human)) was 94.7% and the residual activity (CDK6 CCND3 (human)) was 102%. The residual activity (FLT1 (human)) was 94.3%, the residual activity (MLTK (human)) was 94.4% and the residual activity (IRAK4 (human)) was 194%. For the same compound, the residual activity (DDR2 (human)) was 99.4%, the residual activity (NEK9 (human)) was 98.8% and the residual activity (LIMK1 (human)) was 94.3%. It also gave a residual activity (STK24 (human)) of 90%, a residual activity (CAMK2D (human)) of 105% and a residual activity (PRKCA (human)) of 83%. For the same compound, the residual activity (CAMK1 (human)) was 101%, the residual activity (PTK2B (human)) was 99.6% and the residual activity (TAOK1 (human)) was 97.9%. It also gave a residual activity (CAMKK1 (human)) of 116%, a residual activity (CDK5 CDK5R1 p25 (human)) of 91% and a residual activity (CDK9 CCNK (human)) of 105%. For the same compound, the residual activity (RPS6KA3 KD1 KD2 (human)) was 98.6%, the residual activity (NTRK1 (human)) was 99.8% and the residual activity (STK39 (human)) was 83.5%. For the same compound, the residual activity (BTK (human)) was 99.2% and the residual activity (SYK (human)) was 97.6%.

For `CN([C@@H](Cc1ccc(OS(=O)(=O)c2cccc3cnccc23)cc1)C(=O)N1CCN(c2ccccc2)CC1)S(=O)(=O)c1cccc2cnccc12`, the residual activity (PIM3 (human)) was 113%, the residual activity (MAPK9 (human)) was 85.6% and the residual activity (MAP3K14 (human)) was 90.7%. For the same compound, the residual activity (MAP2K2 (human)) was 119%, the residual activity (STK4 (human)) was 96.8% and the residual activity (CLK3 (human)) was 103%. For the same compound, the residual activity (MAPK8 (human)) was 94.6%, the residual activity (EPHB3 (human)) was 97% and the residual activity (STK33 (human)) was 97.3%. For the same compound, the residual activity (CDK5 CDK5R1 p35 (human)) was 99.5%, the residual activity (GRK6 (human)) was 101% and the residual activity (CAMK4 (human)) was 102%. For the same compound, the residual activity (KDR (human)) was 100%, the residual activity (MAP4K5 (human)) was 96.3% and the residual activity (CAMK2B (human)) was 97.8%. It also gave a residual activity (PDGFRA (human)) of 99.6%, a residual activity (MAP3K7 TAB1 (human)) of 93.4% and a residual activity (CAMK2A (human)) of 107%. It also gave a residual activity (TTK (human)) of 86%, a residual activity (MAP3K8 (human)) of 99.3% and a residual activity (CDK6 CCND3 (human)) of 105%. The residual activity (FLT1 (human)) was 86.5%, the residual activity (MLTK (human)) was 103% and the residual activity (IRAK4 (human)) was 92.1%. For the same compound, the residual activity (DDR2 (human)) was 96.9%, the residual activity (NEK9 (human)) was 97.6% and the residual activity (LIMK1 (human)) was 104%. For the same compound, the residual activity (STK24 (human)) was 102%, the residual activity (CAMK2D (human)) was 92.8% and the residual activity (PRKCA (human)) was 105%. The residual activity (CAMK1 (human)) was 105%, the residual activity (PTK2B (human)) was 103% and the residual activity (TAOK1 (human)) was 98.7%. The residual activity (CAMKK1 (human)) was 108%, the residual activity (CDK5 CDK5R1 p25 (human)) was 93.5% and the residual activity (CDK9 CCNK (human)) was 89.4%. For the same compound, the residual activity (RPS6KA3 KD1 KD2 (human)) was 98.6%, the residual activity (NTRK1 (human)) was 111% and the residual activity (STK39 (human)) was 93.5%. For the same compound, the residual activity (BTK (human)) was 97.1% and the residual activity (SYK (human)) was 98.7%.

`Oc1ccc(Nc2nc(-c3ccc(Cl)cc3)cs2)cc1` gave a residual activity (PIM3 (human)) of 114%, a residual activity (MAPK9 (human)) of 98.3% and a residual activity (MAP3K14 (human)) of 102%. The residual activity (MAP2K2 (human)) was 109%, the residual activity (STK4 (human)) was 106% and the residual activity (CLK3 (human)) was 92.6%. The residual activity (MAPK8 (human)) was 100%, the residual activity (EPHB3 (human)) was 103% and the residual activity (STK33 (human)) was 97.5%. For the same compound, the residual activity (CDK5 CDK5R1 p35 (human)) was 104%, the residual activity (GRK6 (human)) was 100% and the residual activity (CAMK4 (human)) was 99.7%. For the same compound, the residual activity (KDR (human)) was 101%, the residual activity (MAP4K5 (human)) was 110% and the residual activity (CAMK2B (human)) was 85.8%. It also gave a residual activity (PDGFRA (human)) of 101%, a residual activity (MAP3K7 TAB1 (human)) of 95.3% and a residual activity (CAMK2A (human)) of 106%. It also gave a residual activity (TTK (human)) of 87.6%, a residual activity (MAP3K8 (human)) of 94.9% and a residual activity (CDK6 CCND3 (human)) of 109%. It also gave a residual activity (FLT1 (human)) of 82.3%, a residual activity (MLTK (human)) of 92.7% and a residual activity (IRAK4 (human)) of 111%. For the same compound, the residual activity (DDR2 (human)) was 94.1%, the residual activity (NEK9 (human)) was 90.6% and the residual activity (LIMK1 (human)) was 90.5%. The residual activity (STK24 (human)) was 94.1%, the residual activity (CAMK2D (human)) was 98.8% and the residual activity (PRKCA (human)) was 113%. For the same compound, the residual activity (CAMK1 (human)) was 111%, the residual activity (PTK2B (human)) was 100% and the residual activity (TAOK1 (human)) was 97.1%. The residual activity (CAMKK1 (human)) was 124%, the residual activity (CDK5 CDK5R1 p25 (human)) was 85.9% and the residual activity (CDK9 CCNK (human)) was 102%. It also gave a residual activity (RPS6KA3 KD1 KD2 (human)) of 107%, a residual activity (NTRK1 (human)) of 104% and a residual activity (STK39 (human)) of 94.2%. For the same compound, the residual activity (BTK (human)) was 107% and the residual activity (SYK (human)) was 93.8%.
